Assay results taken from doi:10.1101/2021.07.15.452591v1 (biorxiv, 2021).

Target: T1, AmnC (2-aminomuconic 6-semialdehyde dehydrogenase) (Pseudomonas sp., UniProt Q9KWS5, DEL124-138/DEL477-491)
T1 sequence (Q9KWS5 1-476 DEL124-138): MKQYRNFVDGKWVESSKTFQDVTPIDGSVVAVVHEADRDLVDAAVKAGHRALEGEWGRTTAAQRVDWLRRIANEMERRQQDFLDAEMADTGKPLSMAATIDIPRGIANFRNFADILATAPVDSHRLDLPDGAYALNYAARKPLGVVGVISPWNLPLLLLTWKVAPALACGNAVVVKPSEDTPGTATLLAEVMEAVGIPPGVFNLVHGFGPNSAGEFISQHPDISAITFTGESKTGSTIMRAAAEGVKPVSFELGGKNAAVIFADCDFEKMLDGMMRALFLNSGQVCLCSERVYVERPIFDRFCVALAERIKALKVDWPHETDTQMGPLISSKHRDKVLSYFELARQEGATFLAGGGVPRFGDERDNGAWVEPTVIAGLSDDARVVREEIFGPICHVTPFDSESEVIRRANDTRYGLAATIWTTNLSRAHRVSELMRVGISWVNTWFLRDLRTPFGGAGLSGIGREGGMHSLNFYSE
Test: microscale thermophoresis
Assay type: binding

Compound `NC(=O)c1ccc[n+]([C@@H]2O[C@H](COP(=O)(O)OP(=O)(O)OC[C@H]3O[C@@H](n4cnc5c(N)ncnc54)[C@H](O)[C@@H]3O)[C@@H](O)[C@H]2O)c1` [NAD^+] has a Kd of 3 ± 0.3 mM.
